Values after ≈ are worked out from the molar mass of the structure shown.
Key:
[1] = test system: Mycobacterium avium Strain NIHJ 1605; test: In vitro antibacterial activity (1): minimum inhibitory concentration, broth dilution; type: cell-based; conditions: NIHJ1605, 144 h; Mycobacterium avium NIHJ 1605; Middlebrook 7H9 broth, aerobic culture at 37° C. for 6 days
M. tuberculosis Kato = test: In vitro antibacterial activity (2): MIC by broth dilution method; type: cell-based; conditions: Mycobacterium tuberculosis; Middlebrook 7H9 broth, 35° C. for 10–21 days; read-out: MICs against Mycobacterium tuberculosis, M. tuberculosis Kato
Protocol: The minimum inhibitory concentration (MICs) of the test compounds against Mycobacterium tuberculosis was determined by the broth dilution method. After the solution of a test compound in dimethyl sulfoxide (DMSO) or distilled water was diluted with 50% aqueous acetone or distilled water, each two-fold dilution of the solution was carried out with Middlebrook 7H9 broth containing 0.05% Tween 80, 0.2% dextrose and Middlebrook ADC enrichment. […] The microorganisms cultivated on Ogawa medium were suspended uniformly in Middlebrook 7H9 broth containing 0.05% Tween 80, 0.2% dextrose and Middlebrook ADC enrichment. The microorganism solution was adjusted to about 1×10^7 CFU/mL using a spectrophotometer. The resulting microorganism solution was further diluted with Middlebrook 7H9 broth containing 0.05% Tween 80, 0.2% dextrose and Middlebrook ADC enrichment (final viable cell count: about 1×10^5 CFU/mL). After mixing the diluted microorganism solution with the diluted test compound solution in the test tube, cultivation was performed at 35° C. for 10–21 days. When significant growth was found in the control test tube with no test compound, the MIC was determined as the minimum concentration of the compound at which no colony was recognized macroscopically in the test tube.

Row | SMILES | MIC [1] | MIC (M. tuberculosis Kato)
1 | CO[C@H]1[C@@H](O)[C@H](n2ccc(=O)[nH]c2=O)O[C@@H]1[C@@H](O[C@H]1OC(C(=O)N[C@H]2CCCCNC2=O)=C[C@H](O)[C@@H]1O)C(N)=O [Capuramycin, capuramycin, reference compound] | 8 µg/mL (≈ 14 µM) | 
2 | CO[C@H]1[C@@H](O)[C@H](n2ccc(=O)[nH]c2=O)O[C@@H]1[C@@H](O[C@H]1OC(C(=O)Nc2ccc(F)c(F)c2)=C[C@H](O)[C@@H]1O)C(N)=O [Exemplification Compound No. 3712] | 2 µg/mL (≈ 3.51 µM) | 1 µg/mL (≈ 1.75 µM)

Reference: patent US7157442B2, “Antibacterial compound” (Sankyo Company, Limited, priority 1999, dated 2007)
